For series [1] the following is noted: cynomolgus monkey, in vivo, sc, 40 mg/kg.
Series [2] has as its system testosterone. As to the kind of experiment: Serum testosterone levels in cynomolgus monkeys (ELISA). The format is in vivo. The following applies: cynomolgus monkey, 40 mg/kg subcutaneously, 40 mg/kg. How it is done:
Serum testosterone protein levels were measured in the plasma with an ELISA kit (Enzo Life Sciences), following the manufacturer's instructions.

In series [1], “TTGATTTAATGGTTGC [ISIS 560131] (MOE and (S)-cEt gapmer chemistry, further chemistry not given here) [targets intron 1]” yielded an HCT of 44%, a Hemoglobin of 13.1 g/dL, a Platelets of 392000 µL and an RBC of 5.8e+06 µL. Moreover, the WBC in series [1] was 11300 µL. In series [2], this sequence gave a Serum testosterone level of 14.7 ng/mL.

In series [1], “TGATTTAATGGTTGCA [ISIS 569236] (cEt/MOE gapmer chemistry, further chemistry not given here) [targets intron 1]” gave an HCT of 44%, a Hemoglobin of 13.1 g/dL, a Platelets of 358000 µL and an RBC of 5.7e+06 µL. In addition, the WBC in series [1] stood at 14400 µL. Further, the Serum testosterone level in series [2] is reported as 12.7 ng/mL.

For the origin of these results see USRE48461E1, “Modulation of androgen receptor expression” (Ionis Pharmaceuticals, Inc., priority 2012, dated 2021).
